Results on one molecule are retold here after patent US20170030929A1, “DIAGNOSIS OF CHRONIC KIDNEY DISEASE BY QUANTITATIVE ANALYSIS OF POST-TRANSLATIONAL MODIFICATIONS OF PLASMA PROTEINS” (EXCORLAB GMBH, priority 2014, published 2017).

The target in one test is albumin (Homo sapiens, UniProt P02768). Particulars: literature references; cited from earlier work.
Test [1] addresses in-vitro guanidylated albumin (Homo sapiens, UniProt P02768). Briefly: Effect of in-vitro guanidylation on protein bound fraction of albumin. Particulars: albumin 75 μmol l^−1, ligand 7.5 μmol l^−1; over time of guanidylation (0-48 h).

albumin, sequence (P02768 25-609): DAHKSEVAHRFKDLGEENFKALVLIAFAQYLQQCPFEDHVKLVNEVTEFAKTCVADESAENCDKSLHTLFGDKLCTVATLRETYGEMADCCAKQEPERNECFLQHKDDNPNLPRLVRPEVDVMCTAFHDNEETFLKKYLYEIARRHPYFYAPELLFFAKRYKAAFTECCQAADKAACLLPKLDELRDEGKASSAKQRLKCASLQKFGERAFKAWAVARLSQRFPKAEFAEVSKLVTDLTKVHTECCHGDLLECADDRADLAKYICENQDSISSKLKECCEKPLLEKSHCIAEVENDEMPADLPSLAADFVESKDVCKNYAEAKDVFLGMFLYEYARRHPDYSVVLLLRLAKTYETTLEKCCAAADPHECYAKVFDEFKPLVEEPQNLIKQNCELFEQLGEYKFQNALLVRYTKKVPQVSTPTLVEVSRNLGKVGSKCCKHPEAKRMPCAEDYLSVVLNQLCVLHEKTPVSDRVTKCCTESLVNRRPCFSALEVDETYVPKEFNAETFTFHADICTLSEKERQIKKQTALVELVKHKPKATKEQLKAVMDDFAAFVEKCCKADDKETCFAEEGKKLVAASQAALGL
in-vitro guanidylated albumin, sequence (P02768 25-609): as above

With `N[C@@H](Cc1c[nH]c2ccccc12)C(=O)O` [L-tryptophan], the “affinity to post-translational modified albumin as compared to indoxyl sulfate” value on albumin is “more than two orders of magnitude lower affinity”. For the same molecule, in test [1], the “decrease of binding of albumin caused by in-vitro guanidylation” value amounted to 81%.
